Key:
[1] = test system: db/db mice; conditions: previous studies; cited from earlier work
[2] = test system: late-stage db/db mice; assay: Example 1: late-stage db/db mice treated daily for 4 weeks; serum glucose, serum insulin and islet insulin; format: in vivo
Method: Serum glucose and insulin and pancreatic insulin were measured.

[3] = test system: db/db mice; assay: Example 5: ten week-old db/db mice, Compound BI +/- P32/98 for 4 weeks; format: in vivo; conditions: Compound BI 100 mg/kg p.o., P32/98 10 mg/kg twice a day by gavage; for Circulating glucose levels: FIG. 11; for Pancreatic insulin: FIG. 12
Method: Ten week-old db/db mice were given vehicle or Compound BI (100 mg/kg, p.o.)+/−P32/98 (10 mg/kg, twice a day by gavage) as indicated for 4 weeks. Assays for circulating glucose and pancreatic insulin were conducted as in Example 3.

[4] = test system: db/db mice; assay: Example 2: db/db mice with glucose above 400 mg/dL treated for 4 weeks; circulating glucose and pancreatic insulin (ECL assay); format: in vivo; conditions: Compound BI 100 mg/kg by oral gavage, exendin 3 μg/kg or 10 μg/kg i.p.
Method: Peripheral blood glucose levels of db/db mice was monitored. When the glucose levels exceeded 400 mg/dL the mice were divided into groups of 6 mice each. The mice in each group were given either vehicle or Compound BI (100 mg/kg by oral gavage)+/−i.p. injections of exendin-amide (Bachem, King of Prussia, PA) as indicated below for 4 weeks. • 1) Vehicle • 2) Vehicle+Exendin (3 μg/kg) • 3) Vehicle+Exendin (10 μg/kg) • 4) Compound BI • 5) Compound BI+Exendin (3 μg/kg) • 6) Compound BI+Exendin (10 μg/kg)
After four weeks of treatment, the mice were bled via the retroorbital sinus and sera sent to Anilytics, Inc. (Gaithersburg, Md.) for analysis of circulating glucose levels. The pancreata were collected, weighed, flash frozen and then processed for pancreatic insulin assays. Briefly, the pancreas was placed into pancreatic extraction solution (75% ethanol and 25% 0.15N HCl) and the volume adjusted to 1 mL per 100 mg of pancreas. The pancreas was then sonicated and stored at −20° C. overnight. The next day, the samples were centrifuged at 2500 rpm for 5 minutes at 4° C. to pellet unsolubilized material. 1.5 mL of supernatant was placed in an Eppendorf tube and spun in a microcentrifuge at 1300 rpm for 20 minutes at 4° C. to pellet any remaining unsolubilized material. […] The samples were then read on an M384 instrument (BioVeris Corp., Gaithersburg, Md.). […]

[5] = test system: streptozotocin-induced diabetes; conditions: Pospisilik et al., Diabetes 52:741-750, 2003; cited from earlier work

Row | Structure (SMILES) | Islet insulin content [1] | Serum glucose ([2]; daily for 4 weeks, Compound BI 100 mg/kg/day p.o., Exendin-4 amide 10 microgram/day i.p., FIG. 1) | Islet insulin ([2]; daily for 4 weeks, Compound BI 100 mg/kg/day p.o., Exendin-4 amide 10 microgram/day i.p., FIG. 2) | Serum insulin ([2]; daily for 4 weeks, Compound BI 100 mg/kg/day p.o., Exendin-4 amide 10 microgram/day i.p., FIG. 3) | Insulin resistance ([2]; inferred from glucose lowering without a significant increase in serum insulin, 4 weeks) | Circulating glucose levels [3] | Pancreatic insulin [3] | Circulating glucose levels ([4]; FIG. 4) | Pancreatic insulin ([4]; FIG. 5) | Activity in streptozotocin-induced diabetes [5]
1 | Cc1cccc(C)c1COc1cccc(C(=O)CCC(=O)O)c1 [Compound BI, 4-(3-(2,6-Dimethylbenzyloxy)phenyl)-4-oxobutyric acid] | preserves islet insulin content | reduced serum glucose substantially | had more insulin than either of those two groups | without a significant increase in serum insulin | reduced insulin resistance | reduced circulating glucose levels | increased pancreatic insulin levels | significant reduction in circulating glucose levels | corresponding increase in pancreatic insulin | –
2 | CC[C@H](C)[C@H](N)C(=O)N1CCSC1 [P32/98, reference compound] | – | – | – | – | – | slight reduction in circulating glucose levels | no increase in pancreatic insulin | – | – | active

Reference: patent US20130137629A1, “COMBINATION TREATMENT FOR METABOLIC DISORDERS” (WELLSTAT THERAPEUTICS CORPORATION, priority 2006, published 2013)
